In patent US20220218679A1, “NOVEL COMPOUNDS AND PHARMACEUTICAL COMPOSITIONS THEREOF FOR THE TREATMENT OF INFLAMMATORY DISORDERS” (Galapagos NV, priority 2019, published 2022):
pIC50: −log10 of the molar value.

Experiments:
human IRAK-4 = biological target: T1, human IRAK-4 (Homo sapiens, UniProt Q9NWZ3); experiment: Phosphorylation IC50 determination for human IRAK-4 (ADP-Glo kinase assay); assay type: biochemical; settings: RIP140 substrate, Km ATP, read-out: IRAK4 IC50
T1 construct: purchased Carna Biosciences 09 145
T1 sequence (Q9NWZ3 1-460): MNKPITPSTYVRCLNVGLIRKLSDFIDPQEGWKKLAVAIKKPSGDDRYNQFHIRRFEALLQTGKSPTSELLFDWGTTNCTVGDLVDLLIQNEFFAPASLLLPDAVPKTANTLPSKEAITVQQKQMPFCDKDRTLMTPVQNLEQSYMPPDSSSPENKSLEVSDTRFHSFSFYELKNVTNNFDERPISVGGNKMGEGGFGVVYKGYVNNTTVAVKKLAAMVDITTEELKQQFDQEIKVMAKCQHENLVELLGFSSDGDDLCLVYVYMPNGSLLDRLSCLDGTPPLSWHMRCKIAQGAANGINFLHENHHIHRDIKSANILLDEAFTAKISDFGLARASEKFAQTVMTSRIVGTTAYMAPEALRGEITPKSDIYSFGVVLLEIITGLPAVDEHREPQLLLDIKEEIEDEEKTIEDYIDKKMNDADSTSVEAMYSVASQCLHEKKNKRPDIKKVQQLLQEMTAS
Method: 3.1. Phosphorylation IC50 Determination for Human IRAK-4
The phosphorylation of the substrate RIP140 (SEQ IDi1) by IRAK4 at Km ATP was detected with the ADP-Glo Kinase Assay (Promega, Cat #V9103), a luminescent kinase assay which measures the ADP formed from a kinase reaction. (Zegzouti et al., 2009) In a second step the kinase reaction is terminated and all the remaining ATP was depleted. In a final step the ADP was converted into ATP and this newly synthesized ATP was measured by using a luciferase/luciferin reaction with a luminescent reader. The luminescent signal positively correlated with kinase activity, in particular kinase inhibition giving a decrease of the luminescent signal.
For the semi-automated assay, the positive control (100% inhibition) was prepared by diluting 10 mM staurosporine stock mixture (20 μL) in water (3.8 mL) and DMSO (180 μL), thus resulting in a […] staurosporine solution at 1% DMSO (final concentration after further dilution in the kinase reaction).
For the automated assay, no pre-dilution of the 10 mM staurosporine stock was made. 10 mM staurosporine was spotted directly in the assay plate using acoustic dispensing and complemented with DMSO to result in a similar final concentration as mentioned above.
For the semi-automated assay, the negative control (0% inhibition) was prepared by mixing water (3.8 mL) and DMSO (200 μL) resulting in a final concentration of 1% DMSO after further dilution in the kinase reaction. For the automated assay no pre-dilution of DMSO was done. 100% DMSO was spotted directly on the assay plate.
The assay buffer solution was prepared at a concentration corresponding to 5 fold the final (most diluted) assay concentration by mixing a solution of 125 mM TRIS pH 7.5+0.05% Triton X-100+2.5 mM EGTA (5.27 mL) with 1M MgCl2 (72 μL), 1M DTT (57.6 μL), and 200 mM MnCl2 (360 μL).
For example, for the semi-automated method, the enzyme-substrate mixture was prepared by mixing water (3999 μL), assay buffer solution (1380 μL), 1 mM RIP140 (138 μL—SEQ ID1), and 200 ng/mL IRAK 4 (3.45 μL Carna Biosciences, 09 145).
For semi-automated method, the ATP mixture was prepared at a concentration corresponding to 2.5 fold the final (most diluted) assay concentration of the semi-automated method and 1.5 fold the final (most diluted) assay concentration of the automated method. For example, for the semi-automated method, the ATP mixture was prepared by mixing water (4126 μL), assay buffer solution (1380 μL), and 10 mM ATP (13.80 μL).
The assay was performed either in a semi-automated or fully automated manner. The assay volume and the incubation time of the ADP detection were different accordingly the method used.
3.1.3.1. Semi-Automated Assay
The compounds were prepared as a serial dilution of 10 point dose responses with 1/5 dilution steps in 100% DMSO starting from 2 mM highest concentration, diluted 1/20 in water. 1 μL was transferred dry to the assay plates.
On each assay plate 32 wells of each control (positive & negative) were added, followed by 2 μL enzyme-substrate mixture.
The reaction was started by adding 2 μL diluted ATP (final concentration Km ATP) on the assay plates. Plates were centrifuged for a few seconds at 1000 rpm followed by an incubation at r.t. for 120 min.
The reactions were stopped and the unconsumed ATP was depleted by adding 5 μL ADP-glo Reagent (Promega, Cat #V9103) to the reaction. The plates were quickly centrifuged at 1000 rpm and incubated at r.t. for 40 min corresponding to full ATP depletion.
The ADP was converted back to ATP and luciferase and luciferin were introduced to detect ATP by adding 10 μL kinase detection reagent (Promega, Cat #V9103) to the reaction. The plates were centrifuged for a few seconds at 1000 rpm and incubated at r.t. for a further 30 min.
Luminescent read out was performed on an Envision luminescent reader (Perkin Elmer). […]

Mouse Hepatocyte = experiment: Metabolic stability in hepatocytes (mouse); assay type: in vitro ADME; settings: 1 μM test compound, cryopreserved mouse hepatocytes
Method: 4.6. Metabolic Stability in Hepatocytes
The aim of this assay is to determine the metabolic stability of the compound in hepatocytes (cryopreserved) of different species. Low hepatocyte stability may result in the formation of unwanted metabolites, high clearance, and therefore is not desirable.
The decrease in parent was assessed by measuring the percentage remaining by LC-MS/MS analysis.
A 10 mM stock solution of test compound in DMSO was first diluted in DMSO to 3 mM, and then in modified Krebs-Henseleit buffer (Sigma, K3753) to 5 μM. This compound dilution was added to a suspension of pooled cryopreserved hepatocytes (BioreclamationIVT) at 37° C. under gentle shaking.
Final reaction conditions were: 1 μM of test compound, 0.03% DMSO, 0.5 million viable hepatocytes/mL, and 75 μL incubation volume.
Testosterone (1 μM) and 7-hydroxycoumarin (1 μM) were used, respectively as phase I and phase II metabolic reaction controls.
After 0, 10, 20, 45, 90, 120 and 180 min of incubation, the reaction was terminated with 225 μL of MeCN:MeOH (2:1) containing 100 ng/mL of diclofenac as analytical internal standard. Samples were mixed, centrifuged and the supernatant analyzed by LC-MS/MS.
The instrument responses (ratios of test compound and internal standard peak areas) were referenced to the zero time point samples (considered as 100%) in order to determine the percentage of compound remaining.
Plots of percentage compound remaining were used to determine the intrinsic clearance in the hepatocyte incubations using the following equations:
Scaled Clint [L/h/kg]=Clint[μL/min/10^6 cells]*#(10^6) cells/g liver*60*( 1/10^6) Scaled Clint unbound [L/h/kg]=Clint [L/h/kg]/Fu,inc where: fu,inc equals hepatocyte binding, derived from microsomal binding (fu,mic) by following equation: […]

| SMILES | pIC50 (human IRAK-4) | Mouse Hepatocyte stability (Perc. remaining at 90 min) (Mouse Hepatocyte) |
| --- | --- | --- |
| COc1cn2nc(CCC(C)(C)O)cc2cc1NC(=O)c1cccn(C(F)F)c1=O [Compound 7, 1-(difluoromethyl)-N-[2-(3-hydroxy-3-methyl-butyl)-6-methoxy-pyrazolo[1,5-a]pyridin-5-yl]-2-oxo-pyridine-3-carboxamide] | 8.00 to 8.30 | 108.25 Perc. |
| CC(C)(O)CCc1cc2cc(NC(=O)c3cccc(C(F)F)n3)c(C(N)=O)cn2n1 [Compound 20, 5-[[6-(difluoromethyl)pyridine-2-carbonyl]amino]-2-(3-hydroxy-3-methyl-butyl)pyrazolo[1,5-a]pyridine-6-carboxamide] | 8.30 to 10.00 | 80.9 Perc. |
| COc1cn2nc(CCC(C)(C)O)cc2cc1NC(=O)c1cccn(C2CCC2)c1=O [Compound 21, 1-cyclobutyl-N-[2-(3-hydroxy-3-methyl-butyl)-6-methoxy-pyrazolo[1,5-a]pyridin-5-yl]-2-oxo-pyridine-3-carboxamide] | 8.30 to 10.00 | 49.45 Perc. |

The next lines start with the values.

| pIC50 (human IRAK-4) | Mouse Hepatocyte stability (Perc. remaining at 90 min) (Mouse Hepatocyte) | SMILES |
| --- | --- | --- |
| 8.30 to 10.00 | 51.75 Perc. | NC(=O)c1cn2nc(C3CCOCC3)cc2cc1NC(=O)c1cccc(C(F)F)n1 [Compound 16, 5-[[6-(difluoromethyl)pyridine-2-carbonyl]amino]-2-tetrahydropyran-4-yl-pyrazolo[1,5-a]pyridine-6-carboxamide] |
| 8.30 to 10.00 | 76.25 Perc. | CNC(=O)c1cn2nc(CCC(C)(C)O)cc2cc1NC(=O)c1cccc(C(F)(F)F)n1 [Compound 5, 2-(3-hydroxy-3-methylbutyl)-N-methyl-5-[[6-(trifluoromethyl)pyridine-2-carbonyl]amino]pyrazolo[1,5-a]pyridine-6-carboxamide] |
| 8.30 to 10.00 | 94.1 Perc. | COc1cn2nc(CCC(C)(C)O)cc2cc1NC(=O)c1cccn(C)c1=O [Compound 2, N-[2-(3-hydroxy-3-methylbutyl)-6-methoxypyrazolo[1,5-a]pyridin-5-yl]-1-methyl-2-oxopyridine-3-carboxamide] |
